Laboratory results published in BigSolDB 2.1.

O=C(O)c1ccc(Br)cn1
solubility (mole fraction)
Details | in 1,4-dioxane | in THF | in acetonitrile | in ethanol | in ethyl acetate | in isopropanol | in methanol | in methyl acetate | in n-butanol | in n-propanol
278.15 K | – | 0.0326 | 0.00178 | 0.00865 | 0.00491 | 0.0089 | 0.00787 | 0.00916 | 0.0119 | 0.0102
283.15 K | – | 0.0374 | 0.00219 | 0.0103 | 0.00583 | 0.0107 | 0.00924 | 0.0104 | 0.014 | 0.0126
288.15 K | 0.0326 | 0.0426 | 0.00266 | 0.0122 | 0.00674 | 0.0128 | 0.0107 | 0.0117 | 0.0163 | 0.0152
293.15 K | 0.0378 | 0.0478 | 0.0032 | 0.0144 | 0.00802 | 0.0152 | 0.0124 | 0.0131 | 0.0189 | 0.0182
298.15 K | 0.0435 | 0.0543 | 0.00381 | 0.0175 | 0.00937 | 0.018 | 0.0145 | 0.0147 | 0.0218 | 0.0216
303.15 K | 0.0502 | 0.0611 | 0.00449 | 0.0209 | 0.011 | 0.0213 | 0.017 | 0.0164 | 0.0249 | 0.0254
308.15 K | 0.0574 | 0.0663 | 0.00524 | 0.0241 | 0.0126 | 0.025 | 0.0196 | 0.0182 | 0.0283 | 0.0296
313.15 K | 0.0656 | 0.0742 | 0.00607 | 0.028 | 0.0144 | 0.0292 | 0.0229 | 0.0201 | 0.0319 | 0.0342
318.15 K | 0.0744 | 0.0803 | 0.00698 | 0.0323 | 0.0165 | 0.034 | 0.0271 | 0.0221 | 0.0358 | 0.0391
323.15 K | 0.0831 | 0.0886 | 0.00797 | 0.0379 | 0.0186 | 0.0394 | 0.0315 | 0.0244 | 0.0399 | 0.0445
